Assay results from ChEMBL document CHEMBL1133694, “Hydroxamic acid derivatives as potent peptide deformylase inhibitors and antibacterial agents” (J Med Chem, 2000).
Values after ≈ are worked out from the molar mass of the structure shown.

Columns and labels:
Escherichia coli [1] = assay: In vitro antibacterial activity against isolated Escherichia coli DC2; type: functional
[2] = biological target: T1, Endothelin-converting enzyme 1 (Homo sapiens, UniProt P42892); assay: Inhibitory activity against Endothelin-converting enzyme 1
T1 sequence (P42892 whole entry): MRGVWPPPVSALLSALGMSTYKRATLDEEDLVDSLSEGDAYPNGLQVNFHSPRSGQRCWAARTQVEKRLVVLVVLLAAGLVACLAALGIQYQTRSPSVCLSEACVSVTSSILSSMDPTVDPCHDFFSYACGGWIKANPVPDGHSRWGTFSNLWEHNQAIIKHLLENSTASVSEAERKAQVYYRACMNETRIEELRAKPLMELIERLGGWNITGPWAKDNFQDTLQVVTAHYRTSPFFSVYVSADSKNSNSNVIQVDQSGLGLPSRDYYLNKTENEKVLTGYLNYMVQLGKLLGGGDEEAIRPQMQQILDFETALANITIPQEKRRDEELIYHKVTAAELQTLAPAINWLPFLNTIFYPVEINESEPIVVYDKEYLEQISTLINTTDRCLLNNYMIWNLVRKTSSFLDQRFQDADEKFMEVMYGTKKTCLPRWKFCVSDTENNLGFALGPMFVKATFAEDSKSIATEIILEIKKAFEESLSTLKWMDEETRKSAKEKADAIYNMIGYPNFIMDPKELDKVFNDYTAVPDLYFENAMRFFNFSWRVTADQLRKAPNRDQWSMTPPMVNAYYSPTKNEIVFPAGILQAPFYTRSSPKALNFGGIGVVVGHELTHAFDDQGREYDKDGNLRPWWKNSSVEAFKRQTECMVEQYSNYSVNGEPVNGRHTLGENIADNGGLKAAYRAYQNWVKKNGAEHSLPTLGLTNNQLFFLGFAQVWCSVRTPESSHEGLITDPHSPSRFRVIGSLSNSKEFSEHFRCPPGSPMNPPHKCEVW

Matrilysin = Matrilysin (Homo sapiens, UniProt P09237); assay: Inhibition of matrilysin, Matrix metalloprotease-7
Collagenase 3 = Collagenase 3 (Homo sapiens, UniProt P45452); assay: Inhibition of Matrix metalloprotease-13
Interstitial collagenase = biological target: T2, Interstitial collagenase (Homo sapiens, UniProt P03956); assay: Inhibition of Matrix metalloprotease-1
T2 sequence (P03956 whole entry): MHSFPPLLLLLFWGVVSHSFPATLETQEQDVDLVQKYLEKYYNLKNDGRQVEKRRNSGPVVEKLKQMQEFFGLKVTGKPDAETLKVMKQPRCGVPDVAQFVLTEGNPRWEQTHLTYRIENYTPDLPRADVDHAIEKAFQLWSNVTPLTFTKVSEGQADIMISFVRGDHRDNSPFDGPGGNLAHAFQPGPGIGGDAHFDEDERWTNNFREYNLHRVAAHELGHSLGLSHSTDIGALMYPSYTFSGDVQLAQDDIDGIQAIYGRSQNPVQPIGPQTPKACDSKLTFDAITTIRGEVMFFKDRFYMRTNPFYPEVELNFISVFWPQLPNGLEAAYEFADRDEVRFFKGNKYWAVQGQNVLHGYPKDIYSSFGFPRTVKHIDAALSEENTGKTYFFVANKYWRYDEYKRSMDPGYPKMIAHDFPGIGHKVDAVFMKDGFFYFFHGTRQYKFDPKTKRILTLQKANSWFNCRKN

[3] = biological target: Macrophage metalloelastase (Homo sapiens, UniProt P39900); assay: Inhibition of human Matrix metalloprotease-12
Moraxella catarrhalis = assay: In vitro antibacterial activity against isolated Moraxella catarrhalis RA21; type: functional
Neprilysin [4] = biological target: T3, Neprilysin (Rattus norvegicus, UniProt P07861); assay: Inhibitory activity against neutral endopeptidase enzyme (NEP).
T3 sequence (P07861 whole entry): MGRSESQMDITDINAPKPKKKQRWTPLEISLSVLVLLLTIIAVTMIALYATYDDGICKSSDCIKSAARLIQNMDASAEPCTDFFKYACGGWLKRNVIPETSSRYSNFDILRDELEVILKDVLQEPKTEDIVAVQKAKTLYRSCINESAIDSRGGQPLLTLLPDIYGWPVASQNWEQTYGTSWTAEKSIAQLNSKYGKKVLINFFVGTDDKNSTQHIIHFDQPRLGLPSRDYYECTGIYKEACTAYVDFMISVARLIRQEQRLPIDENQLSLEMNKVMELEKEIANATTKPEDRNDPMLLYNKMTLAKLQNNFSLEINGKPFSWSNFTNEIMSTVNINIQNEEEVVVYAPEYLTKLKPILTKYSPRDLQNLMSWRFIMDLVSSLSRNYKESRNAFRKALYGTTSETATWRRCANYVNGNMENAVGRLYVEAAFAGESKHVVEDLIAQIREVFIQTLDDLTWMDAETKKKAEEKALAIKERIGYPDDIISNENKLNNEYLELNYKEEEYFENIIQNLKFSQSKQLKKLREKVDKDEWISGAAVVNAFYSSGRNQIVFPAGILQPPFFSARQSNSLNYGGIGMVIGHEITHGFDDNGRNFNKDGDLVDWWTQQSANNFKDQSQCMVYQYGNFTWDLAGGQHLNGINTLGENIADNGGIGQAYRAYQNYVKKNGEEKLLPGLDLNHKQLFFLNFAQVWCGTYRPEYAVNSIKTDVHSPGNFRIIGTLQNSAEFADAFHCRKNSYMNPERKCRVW

[5] = biological target: Angiotensin-converting enzyme (Homo sapiens, UniProt P12821)
Neprilysin [6] = biological target: T3, Neprilysin; assay: Inhibitory activity against endopeptidase enzyme (NEP).
Peptide deformylase = biological target: T4, Peptide deformylase (Escherichia coli, UniProt Q9JN24); assay: Inhibitory activity against isolated Escherichia coli peptidyl deformylase (PDF) enzyme containing iron.
T4 sequence (Q9JN24 whole entry): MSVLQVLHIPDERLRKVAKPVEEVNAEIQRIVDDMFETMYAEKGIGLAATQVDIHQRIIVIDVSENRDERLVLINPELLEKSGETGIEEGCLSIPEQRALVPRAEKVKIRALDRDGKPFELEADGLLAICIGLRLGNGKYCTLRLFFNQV

Bacillus subtilis = assay: In vitro antibacterial activity against Bacillus subtilis ATCC 585969.; type: functional
Chlamydia pneumoniae = assay: In vitro antibacterial activity against Chlamydia pneumoniae AR-39.; type: functional
Escherichia coli [7] = assay: In vitro antibacterial activity against Escherichia coli ATCC 25922.; type: functional
Enterococcus faecalis = assay: In vitro antibacterial activity against Enterococcus faecalis ATCC 29212.; type: functional
Enterococcus faecium = assay: In vitro antibacterial activity against Enterococcus faecium vanA E25_1.; type: functional
Haemophilus influenzae = assay: In vitro antibacterial activity against Haemophilus influenzae 11.; type: functional
[8] = test system: Mycoplasmoides pneumoniae; assay: In vitro antibacterial activity against Mycoplasma pneumoniae ATCC 29342.; type: functional
[9] = Inhibitory activity against PDF isolated from Bacillus subtilis
Pseudomonas aeruginosa = assay: In vitro antibacterial activity against Pseudomonas aeruginosa ATCC 27853.; type: functional
Staphylococcus aureus = assay: In vitro antibacterial activity against Staphylococcus aureus ATCC 25923.; type: functional
Streptococcus pneumoniae [10] = assay: In vitro antibacterial activity against Streptococcus pneumoniae ATCC 49619.; type: functional
[11] = test system: Stenotrophomonas maltophilia; assay: In vitro antibacterial activity against Stenotrophomonas maltophilia 1AC739.; type: functional
Streptococcus pneumoniae [12] = assay: In vitro antibacterial activity against Streptococcus pneumoniae 1/1 (penicillin resistant).; type: functional
[13] = test system: peptide deformylase (Streptococcus pneumoniae); assay: Inhibitory activity against PDF isolated from Streptococcus pneumoniae

Angiotensin-converting enzyme, sequence (P12821 whole entry): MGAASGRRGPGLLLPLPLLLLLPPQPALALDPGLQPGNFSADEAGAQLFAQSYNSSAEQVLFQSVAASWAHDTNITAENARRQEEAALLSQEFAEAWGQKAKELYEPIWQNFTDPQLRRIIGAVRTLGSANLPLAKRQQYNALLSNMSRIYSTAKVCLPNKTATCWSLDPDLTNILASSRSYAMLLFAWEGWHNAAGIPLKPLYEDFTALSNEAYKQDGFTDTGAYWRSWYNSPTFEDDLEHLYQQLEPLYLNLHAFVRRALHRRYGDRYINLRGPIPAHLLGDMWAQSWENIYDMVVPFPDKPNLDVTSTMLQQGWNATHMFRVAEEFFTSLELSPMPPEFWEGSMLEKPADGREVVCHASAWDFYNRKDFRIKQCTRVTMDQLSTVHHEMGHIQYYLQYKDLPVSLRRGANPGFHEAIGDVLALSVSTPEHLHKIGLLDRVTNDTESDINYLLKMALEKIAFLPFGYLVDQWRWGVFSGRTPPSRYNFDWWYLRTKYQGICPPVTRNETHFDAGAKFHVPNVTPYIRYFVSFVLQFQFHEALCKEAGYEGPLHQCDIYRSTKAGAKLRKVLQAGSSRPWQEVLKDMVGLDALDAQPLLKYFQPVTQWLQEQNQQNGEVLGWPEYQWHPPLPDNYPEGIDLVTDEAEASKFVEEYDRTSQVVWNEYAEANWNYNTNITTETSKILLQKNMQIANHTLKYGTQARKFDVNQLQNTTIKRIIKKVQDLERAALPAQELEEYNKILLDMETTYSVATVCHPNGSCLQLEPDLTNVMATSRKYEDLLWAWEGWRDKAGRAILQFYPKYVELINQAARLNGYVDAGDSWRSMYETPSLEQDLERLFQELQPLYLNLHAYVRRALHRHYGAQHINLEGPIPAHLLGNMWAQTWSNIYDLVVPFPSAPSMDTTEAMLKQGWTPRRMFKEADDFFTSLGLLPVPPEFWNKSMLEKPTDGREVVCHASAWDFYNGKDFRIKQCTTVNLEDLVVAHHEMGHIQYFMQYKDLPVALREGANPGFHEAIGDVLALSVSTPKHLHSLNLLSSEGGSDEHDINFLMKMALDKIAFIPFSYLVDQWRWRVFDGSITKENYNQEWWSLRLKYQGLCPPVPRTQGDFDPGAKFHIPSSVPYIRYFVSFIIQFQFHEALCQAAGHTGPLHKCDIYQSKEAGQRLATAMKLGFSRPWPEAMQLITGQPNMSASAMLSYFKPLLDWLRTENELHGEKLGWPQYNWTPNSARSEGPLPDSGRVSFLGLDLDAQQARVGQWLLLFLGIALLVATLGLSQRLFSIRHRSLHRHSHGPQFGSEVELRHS
Macrophage metalloelastase, sequence (P39900 whole entry): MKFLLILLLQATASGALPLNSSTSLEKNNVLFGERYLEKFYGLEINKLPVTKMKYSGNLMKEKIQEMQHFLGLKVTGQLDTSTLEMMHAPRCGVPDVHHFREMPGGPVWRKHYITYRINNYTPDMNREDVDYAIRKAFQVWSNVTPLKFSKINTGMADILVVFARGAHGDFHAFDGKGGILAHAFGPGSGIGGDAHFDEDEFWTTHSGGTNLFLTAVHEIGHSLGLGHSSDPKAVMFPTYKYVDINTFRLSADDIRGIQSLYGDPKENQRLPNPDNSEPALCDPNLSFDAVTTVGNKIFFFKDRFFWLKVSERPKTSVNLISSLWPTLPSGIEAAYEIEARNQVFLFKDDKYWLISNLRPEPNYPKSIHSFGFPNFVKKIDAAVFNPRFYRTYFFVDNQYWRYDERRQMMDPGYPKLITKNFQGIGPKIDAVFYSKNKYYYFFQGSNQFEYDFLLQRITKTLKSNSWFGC
Matrilysin, sequence (P09237 whole entry): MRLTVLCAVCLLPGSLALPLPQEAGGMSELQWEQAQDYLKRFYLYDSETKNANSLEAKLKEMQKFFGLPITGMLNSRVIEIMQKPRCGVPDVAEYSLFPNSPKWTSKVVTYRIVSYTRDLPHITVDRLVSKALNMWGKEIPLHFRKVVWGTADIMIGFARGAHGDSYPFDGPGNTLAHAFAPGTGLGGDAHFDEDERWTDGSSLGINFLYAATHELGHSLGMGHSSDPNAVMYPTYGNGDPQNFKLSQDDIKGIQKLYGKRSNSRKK

With `CCCCC(CC(=O)NO)S(=O)(=O)C1CCCCC1` (stereo not given) the MIC (Escherichia coli [1]) was 8 µg/mL (≈ 27.5 µM), the IC50 [2] was 78000 nM and the IC50 (Matrilysin) was 290 nM. The IC50 (Collagenase 3) was 100 nM, the IC50 (Interstitial collagenase) was 54 nM and the IC50 [3] was 14 nM. It also gave an MIC (Moraxella catarrhalis) of less than 0.25 µg/mL, an IC50 (Neprilysin [4]) of 1650 nM and an IC50 [5] greater than 100000 nM.
`CCCCC(CC(=O)NO)S(=O)(=O)c1ccc(Br)cc1` (stereo not given) gave an MIC (Escherichia coli [1]) of 16 µg/mL (≈ 43.9 µM) and an MIC (Moraxella catarrhalis) of 2 µg/mL (≈ 5.49 µM).
Work on `CCCC[C@@H](CC(=O)NO)S(=O)(=O)c1ccccc1` yielded an MIC (Escherichia coli [1]) greater than 128 µg/mL, an IC50 [2] greater than 100000 nM and an IC50 (Collagenase 3) of 18 nM. The IC50 (Interstitial collagenase) was 300 nM, the IC50 [3] was 9 nM and the MIC (Moraxella catarrhalis) was 16 µg/mL (≈ 56.1 µM). The IC50 (Neprilysin [6]) was 15000 nM and the IC50 [5] was greater than 100000 nM.
Compound `O=C(CC(c1ccco1)S(=O)(=O)c1ccccc1)NO` (stereo not given) has an MIC (Escherichia coli [1]) of 32 µg/mL (≈ 108 µM) and an MIC (Moraxella catarrhalis) of 4 µg/mL (≈ 13.5 µM).
Compound `CCCCC(CC(=O)NO)[S+]([O-])c1ccc(Br)cc1` (stereo not given) has an MIC (Escherichia coli [1]) of 1 µg/mL (≈ 2.87 µM), an MIC (Moraxella catarrhalis) of less than 0.125 µg/mL and an IC50 (Peptide deformylase) of 210 nM.
With `CCCCCC(CC(=O)NO)S(=O)(=O)c1ccccc1` (stereo not given) the MIC (Escherichia coli [1]) was 2 µg/mL (≈ 6.68 µM), the MIC (Moraxella catarrhalis) was less than 0.06 µg/mL and the IC50 (Peptide deformylase) was 140 nM.
For `CCCCC(CC(=O)NO)S(=O)(=O)c1ccccc1` (stereo not given), the MIC (Bacillus subtilis) was 1 µg/mL (≈ 3.5 µM), the MIC (Chlamydia pneumoniae) was 0.5 µg/mL (≈ 1.75 µM) and the MIC (Escherichia coli [7]) was 128 µg/mL (≈ 449 µM). The MIC (Enterococcus faecalis) was greater than 128 µg/mL, the MIC (Escherichia coli [1]) was 8 µg/mL (≈ 28 µM) and the MIC (Enterococcus faecium) was greater than 128 µg/mL. For the same compound, the IC50 [2] was greater than 50000 nM, the MIC (Haemophilus influenzae) was 4 µg/mL (≈ 14 µM) and the IC50 (Collagenase 3) was 22 nM. It also gave an IC50 (Interstitial collagenase) of 110 nM, an IC50 [3] of 12 nM and an MIC (Moraxella catarrhalis) of less than 0.25 µg/mL. The MIC [8] was 1 µg/mL (≈ 3.5 µM), the IC50 (Neprilysin [4]) was 18000 nM and the IC50 [9] was 96 nM. It also gave an MIC (Pseudomonas aeruginosa) greater than 128 µg/mL, an MIC (Staphylococcus aureus) of 256 µg/mL (≈ 897 µM) and an MIC (Streptococcus pneumoniae [10]) of 128 µg/mL (≈ 449 µM). The MIC [11] was 4 µg/mL (≈ 14 µM), the MIC (Streptococcus pneumoniae [12]) was 128 µg/mL (≈ 449 µM) and the IC50 [5] was 81000 nM. For the same compound, the IC50 [13] was 340 nM.
`CCCCC(CC(=O)NO)S(=O)(=O)c1ccc(OC)cc1` (stereo not given) gave an MIC (Escherichia coli [1]) of 16 µg/mL (≈ 50.7 µM), an MIC (Moraxella catarrhalis) of 0.5 µg/mL (≈ 1.59 µM) and an IC50 (Peptide deformylase) of 31 nM.
`CCCCC[C@H](CC(=O)NO)C(=O)N[C@H](C(=O)N1CCC[C@H]1CO)C(C)C` [ACTINONIN] gave an MIC (Bacillus subtilis) of 8 µg/mL (≈ 20.8 µM), an MIC (Chlamydia pneumoniae) of 4 µg/mL (≈ 10.4 µM) and an MIC (Escherichia coli [7]) of 64 µg/mL (≈ 166 µM). For the same compound, the MIC (Enterococcus faecalis) was greater than 128 µg/mL, the MIC (Escherichia coli [1]) was 1 µg/mL (≈ 2.59 µM) and the MIC (Enterococcus faecium) was greater than 128 µg/mL. For the same compound, the MIC (Haemophilus influenzae) was 2 µg/mL (≈ 5.19 µM), the MIC (Moraxella catarrhalis) was less than 0.06 µg/mL and the MIC [8] was greater than 64 µg/mL. It also gave an MIC (Pseudomonas aeruginosa) greater than 128 µg/mL, an MIC (Staphylococcus aureus) of 32 µg/mL (≈ 83 µM) and an MIC (Streptococcus pneumoniae [10]) of 32 µg/mL (≈ 83 µM). The MIC [11] was 16 µg/mL (≈ 41.5 µM) and the MIC (Streptococcus pneumoniae [12]) was 128 µg/mL (≈ 332 µM).
In the case of `CCCCCCS(=O)(=O)C(CCCC)CC(=O)NO` (stereo not given), the MIC (Escherichia coli [1]) is reported as 64 µg/mL (≈ 218 µM) and the MIC (Moraxella catarrhalis) is reported as 4 µg/mL (≈ 13.6 µM).
`CCCCC(CC(=O)NO)[S+]([O-])c1ccc(OC)cc1` (stereo not given) gave an MIC (Escherichia coli [1]) of 2 µg/mL (≈ 6.68 µM), an MIC (Moraxella catarrhalis) of less than 0.25 µg/mL and an IC50 (Peptide deformylase) of 99 nM.
With `CCC(CC(=O)NO)S(=O)(=O)c1ccccc1` (stereo not given) the MIC (Escherichia coli [1]) was greater than 64 µg/mL and the MIC (Moraxella catarrhalis) was greater than 64 µg/mL.
`CCCC[C@@H](C(O)C(=O)NO)[S+]([O-])c1ccccc1` (stereo not given in full) gave an MIC (Escherichia coli [1]) of 32 µg/mL (≈ 112 µM) and an MIC (Moraxella catarrhalis) of 4 µg/mL (≈ 14 µM).
